Experimental data published in patent publication US11660311B2, “Cyclic dinucleotides as anticancer agents” (priority 2017, dated 2023).
Where two headings read alike, the source gives them in different places.

How the values were obtained:
[1] = tested on: IRF pathway in THP1-Dual STING reporter cells; assay: STING THP1 Reporter Assay, IRF pathway (secreted Lucia luciferase); type: cell-based, human; conditions: 100% = 100 μM cGAMP
From the text: (§1) THP1-Dual™ cells were derived from the human THP-1 monocyte cell line by stable integration of two inducible reporter constructs. To this end, THP1-Dual™ cells allow the simultaneous study of the NF-κB pathway, by monitoring the activity of SEAP, and the IRF pathway by assessing the activity of a secreted luciferase (Lucia). Both reporter proteins are readily measurable in the cell culture supernatant when using QUANTI-Blue™, a SEAP detection reagent, and QUANTI-Luc™, a luciferase detection reagent.
(§2) THP1-Dual™ cells induce the activation of NF-κB in response to STING agonists. They also trigger the IRF pathway upon stimulation with STING agonists, such as cGAMP. Here, the THP-1-Dual cells were used to assess STING binders for function on the cellular level.
(§3) Serial dilutions of compounds in DMSO were added to low volume 384 well plates at 100 nl/well using an ECHO acoustic dispenser (Labcyte, model 550) to achieve final starting concentration of 100 μM in cell suspension. […] One column of the plate was reserved for treatment with cGAMP at 100 μM for 100% activation calculation and one column for no treatment (DMSO only) for baseline activation. Plates were then incubated in 37° C. incubator at 5% CO2 for 20 hours.
(§4) In the SEAP assay, 5 μl of 2× QuantiBlue (Invivogen, cat #Rep-qb2) is added to 384 well black plates seeded with THP1 cells and incubated at 37° C. for 2 hours. Plates were read on the Envision (Perkin Elmer) at 620 nm wavelength (OD620). In the luciferase assay, 5 μl of Quantiluc (Invivogen, Rep-qlc2) is added to white 384 well plates seeded with THP1 cells and read at 5 minutes on the Envision (Perkin Elmer) using a luminescence protocol (RLU). For both cell lines, 100% activation was determined by value (RLU) of THP-1 Dual STING cells stimulated with 100 μM cGAMP (Invivogen, cat #TLRL-NACGA23-5).

[2] = tested on: NF-κB pathway in THP1-Dual STING reporter cells; assay: STING THP1 Reporter Assay, NF-κB pathway (SEAP); type: cell-based, human; conditions: 100% = 100 μM cGAMP
From the text: as §1, §2, §3, §4

[3] = molecular target: T1, STING WT: His-TVMV-S-hSTING(155-341)-H232R (Homo sapiens, UniProt Q86WV6, H232R); assay: STING HTRF Binding Assay, STING WT; conditions: 20 nM His-tagged STING cytoplasmic domain, 200 nM fluorescein-labeled cGAMP analog probe, one hour; read-out: HTRF Binding Assays IC50 (μM) STING WT
T1 construct: STING WT: His-TVMV-S-hSTING(155-341)-H232R
Method: (§5) A time resolved FRET-based competition binding assay was used to assess test article binding to STING WT and STING AQ. His-tagged STING cytoplasmic domain (WT or AQ) at a concentration of 20 nM was incubated with 2.5 nM Tb-labeled anti-His antibody, test compound, and fluorescein-labeled cGAMP analog probe (BioLog cat. no. C195) at a concentration of 200 nM (STING WT) or 40 nM (STING AQ) in PBS containing 0.005% Tween-20 and 0.1% BSA for one hour. Fluorescence at 495 nm and 520 nm was measured using an EnVision microplate reader to quantify FRET between Tb-labeled anti-His antibody and fluorescein-labeled probe. Background was defined as the signal obtained in the absence of STING protein, and background subtracted FRET ratios were normalized to the maximum signal obtained in the absence of test compound. These values were converted to a percent inhibition. Percent inhibition was determined for test compounds at 11 concentrations. The IC50, defined as the concentration of competing test compound needed to reduce specific binding of the probe by 50%, was calculated using the 4 parameter logistic equation to fit the data

[4] = molecular target: T2, STING AQ: His-TVMV-S-hSTING(155-341)-G230A-R293Q (Homo sapiens, UniProt Q86WV6, G230A/H232R/R293Q); assay: STING HTRF Binding Assay, STING AQ; conditions: 20 nM His-tagged STING cytoplasmic domain, 40 nM fluorescein-labeled cGAMP analog probe, one hour; read-out: HTRF Binding Assays IC50 (μM) STING AQ
T2 construct: STING AQ: His-TVMV-S-hSTING(155-341)-G230A-R293Q
Method: as §5

[5] = read-out: THP1 Reporter Assays EC50 (μM) IRF3, THP1-Dual cells, 10% human plasma, 20 hours, luciferase
[6] = read-out: THP1 Reporter Assays EC50 (μM) NFkB, THP1-Dual cells, 10% human plasma, 20 hours, SEAP

T2 sequence (Q86WV6 with tags, fused parts or gaps G230A/H232R/R293Q): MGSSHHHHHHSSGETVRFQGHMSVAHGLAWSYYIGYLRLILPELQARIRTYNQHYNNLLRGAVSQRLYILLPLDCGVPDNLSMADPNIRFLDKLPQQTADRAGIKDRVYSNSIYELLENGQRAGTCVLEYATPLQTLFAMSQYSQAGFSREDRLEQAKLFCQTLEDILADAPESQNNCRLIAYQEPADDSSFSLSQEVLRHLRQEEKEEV
T1 sequence (Q86WV6 with tags, fused parts or gaps H232R): as the sequence (Q86WV6 with tags, fused parts or gaps G230A/H232R/R293Q) above, with A99G, Q162R counted along it

Row | SMILES | EC50 ([1]; Homo sapiens, THP1-Dual, 20 h, read-out: THP1 Reporter Assays EC50 (μM) IRF3, THP1-Dual cells, 10% human plasma, 20 hours, luciferase) [µM] | EC50 ([2]; Homo sapiens, THP1-Dual, 20 h, read-out: THP1 Reporter Assays EC50 (μM) NFkB, THP1-Dual cells, 10% human plasma, 20 hours, SEAP) [µM] | IC50 [3] [µM] | IC50 [4] [µM] | EC50 ([1]; Homo sapiens, THP1-Dual, 20 h, THP1-Dual cells, 10% human plasma, 20 hours, luciferase, read-out: THP1 Reporter Assays EC50 (μM) IRF3) [µM] | EC50 ([2]; Homo sapiens, THP1-Dual, 20 h, THP1-Dual cells, 10% human plasma, 20 hours, SEAP, read-out: THP1 Reporter Assays EC50 (μM) NFkB) [µM] | EC50 [1, 5] [µM] | EC50 [2, 6] [µM]
1 | Nc1ncnc2c1ncn2[C@@H]1O[C@@H]2COP(=O)(O)O[C@H]3[C@@H](O)[C@H](n4cnc5c(=O)n6ccnc6[nH]c54)O[C@@H]3COP(=O)(O)O[C@H]2[C@H]1F [Example 2, (1S,6R,8R,9R,10R,15R,17R,18R)-8-(6-amino-9H-purin-9-yl)-9-fluoro-3,12,18-trihydroxy-17-{9-oxo-3H,4H,9H-imidazo[1,2-a]purin-3-yl}-2,4,7,11,13,16-hexaoxa-3λ^5,12λ^5-diphosphatricyclo[13.3.0.0^6,10]octadecane-3,12-dione] | 2.36 | 4.38 | 0.04 | 0.01 |  |  |  | 
2 | Nc1nc2c(ncn2[C@@H]2O[C@@H]3COP(=O)(O)O[C@H]4[C@@H](O)[C@H](n5cnc6c(N)ncnc65)O[C@@H]4COP(=O)(S)O[C@H]3[C@H]2O)c(=O)[nH]1 (stereo partly drawn) [Example 15, (1S,8R,9R,10S,15R,17R,18R)-8-(2-amino-6-oxo-6,9-dihydro-1H-purin-9-yl)-17-(6-amino-9H-purin-9-yl)-3,9,18-trihydroxy-12-sulfanyl-2,4,7,11,13,16-hexaoxa-3λ^5,12λ^5-diphosphatricyclo[13.3.0.0^6,10]octadecane-3,12-dione] |  |  | 9.55 | 0.83 | > 100 | > 100 |  | 
3 | Nc1ncnc2c1ncn2[C@@H]1O[C@@H]2COP(=O)(S)O[C@H]3[C@@H](F)[C@H](n4cnc5c4ncn4ccnc54)O[C@@H]3COP(=O)(S)O[C@H]2[C@H]1F (single isomer, unassigned) [Example 21-3] |  |  | 0.02 | 0.01 |  |  | 0.14 | 0.53
4 | Nc1ncnc2c1ncn2[C@@H]1O[C@@H]2COP(=O)(S)O[C@H]3[C@@H](O)[C@H](n4cnc5c4ncn4ncnc54)O[C@@H]3COP(=O)(O)O[C@H]2[C@H]1F (single isomer, unassigned) [Example 10-1] |  |  | 2.5 | 0.04 |  |  | > 100 | > 100
